Here are results for five compounds from paper PMC5344255, “Design, Synthesis and Biochemical Evaluation of Novel Selective Estrogen Receptor Ligand Conjugates Incorporating an Endoxifen-Combretastatin Hybrid Scaffold” (Biomedicines, 2016).

SMILES strings stand for the structures. Several values for one entry are separate records, joined by “and”; a condition that tells them apart may be missing. Equal values may be shown once. A value given as a limit tells only on which side of the number the result lay.

In series [1] the test system is MCF-7 human breast cancer cells. Nature of the series: MTT assay for antiproliferative effects in MCF-7. In kind it is cell-based. The note with it: Homo sapiens, MCF7, MCF-7, MTT assay. On the procedure: (§1) The human breast carcinoma cell line, MCF-7, was purchased from the European Collection of Animal Cell Cultures (ECACC). The cells were maintained in MCF-7 complete medium; consisting of Eagle’s Minimum Essential Medium (MEM) supplemented with 10% (v/v) Foetal Bovine Serum (FBS), 2 mM L-glutamine, 100 μg/mL penicillin/streptomycin and 1% (v/v) non-essential amino acids. Cell cultures were maintained at 37 °C under a humidified atmosphere of 5% CO2/95% O2. The human breast carcinoma cell line, MDA, was purchased from the European Collection of Animal Cell Cultures (ECACC). The cells were maintained in MDA complete medium; consisting of Dulbecco’s Modified Eagle’s Medium (D-MEM) supplemented with 10% (v/v) Foetal Bovine Serum (FBS), 2 mM L-glutamine, 100 μg/mL penicillin/streptomycin. Cell cultures were maintained at 37 °C under a humidified atmosphere of 5% CO2/95% O2. The MTT assay was performed according to the reported protocol. The tetrazolium salt, 3-(4,5-dimethylthiazol-2-yl)-2,5-diphenyltetrazolium bromide (MTT) is taken up only by metabolically active cells and cleaved to form a formazan dye by mitochondrial dehydrogenases. Assays where repeated in three experiments performed in triplicate (unless otherwise stated) and reported results represent the mean value ± standard error mean. Graphs of percentage cell viability versus concentration of the subject compound were processed using PRISM [31].
For orientation: Tetrazolium assays rely on reduction of a dye to a coloured formazan, in cell work by metabolically active cells.

The test system is the same in series [2]. Nature of the series: Lactate dehydrogenase (LDH) cytotoxicity assay in MCF-7. In kind it is cell-based. The note with it: % cell lysis at 10 µM. On the procedure:
(§2) In this assay, the release of cytoplasmic lactate dehydrogenase (LDH) is used as a measure of cell lysis. MCF-7 and MDA-MB-231 cells were seeded at a density of 1 × 10^4 cells/well in a 96-well plate and incubated for 24 h. The cells were then dosed with 2 μL volumes of the test compounds, over the concentration range 1 nM–50 μM. Cytotoxicity was determined using the CytoTox 96 nonradioactive cytotoxicity assay (Promega, Madison, WI, USA) following the manufacturer’s protocol.

The target of another series is T1, human ERα (Homo sapiens, UniProt P03372).
T1 construct: purchased Invitrogen; host or cells: baculovirus expression system
T1 sequence (P03372 1-595): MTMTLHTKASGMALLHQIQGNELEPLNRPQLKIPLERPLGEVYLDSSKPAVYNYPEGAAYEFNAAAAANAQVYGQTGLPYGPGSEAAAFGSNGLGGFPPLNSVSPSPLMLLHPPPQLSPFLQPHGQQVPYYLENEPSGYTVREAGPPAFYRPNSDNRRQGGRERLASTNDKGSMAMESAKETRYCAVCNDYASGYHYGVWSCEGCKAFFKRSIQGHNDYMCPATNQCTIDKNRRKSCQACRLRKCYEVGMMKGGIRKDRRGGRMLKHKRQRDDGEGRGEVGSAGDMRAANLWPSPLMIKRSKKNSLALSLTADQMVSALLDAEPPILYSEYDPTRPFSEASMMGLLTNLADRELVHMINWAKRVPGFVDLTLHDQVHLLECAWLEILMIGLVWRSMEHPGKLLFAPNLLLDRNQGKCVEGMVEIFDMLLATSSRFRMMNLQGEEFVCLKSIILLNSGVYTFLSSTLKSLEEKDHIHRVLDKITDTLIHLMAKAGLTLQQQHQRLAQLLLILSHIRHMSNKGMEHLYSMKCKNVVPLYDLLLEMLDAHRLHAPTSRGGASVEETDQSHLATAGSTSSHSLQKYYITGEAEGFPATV
The series is described as follows: Estrogen receptor fluorescence polarisation competitive binding assay, ERα. The note with it: for IC50: competitive binding, fluoromone ligand; for Selectivity (α/β): ratio of ER binding IC50 values. A general note: In fluorescence polarisation assays a small probe gives low polarisation when free and higher when bound to something large.

The target in another series is T2, human ERβ (Homo sapiens, UniProt Q92731).
T2 construct: purchased Invitrogen; host or cells: baculovirus expression system
T2 sequence (Q92731 whole entry): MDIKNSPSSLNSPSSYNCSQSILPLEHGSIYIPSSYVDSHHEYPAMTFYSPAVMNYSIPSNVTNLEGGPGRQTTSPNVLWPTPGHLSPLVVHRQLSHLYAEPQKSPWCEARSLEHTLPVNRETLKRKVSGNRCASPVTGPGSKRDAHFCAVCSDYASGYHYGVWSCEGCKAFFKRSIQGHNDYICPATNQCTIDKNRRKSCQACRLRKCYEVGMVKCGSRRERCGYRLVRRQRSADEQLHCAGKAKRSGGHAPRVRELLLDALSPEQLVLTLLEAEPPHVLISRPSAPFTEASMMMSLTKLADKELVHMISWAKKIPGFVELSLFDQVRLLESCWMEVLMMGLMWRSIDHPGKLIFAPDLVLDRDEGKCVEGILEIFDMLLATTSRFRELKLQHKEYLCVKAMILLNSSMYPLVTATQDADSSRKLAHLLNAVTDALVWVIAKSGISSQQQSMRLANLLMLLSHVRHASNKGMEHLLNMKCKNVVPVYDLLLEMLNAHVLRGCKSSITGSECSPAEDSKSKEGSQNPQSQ
Nature of the series: Estrogen receptor fluorescence polarisation competitive binding assay, ERβ. The note with it: fluoromone ligand.

Series [3] relates to MDA-MB-231 human breast cancer cells. The series is described as follows: MTT assay for antiproliferative effects in MDA-MB-231. The format is cell-based. The note with it: MDA-MB-231, MTT assay. On the procedure:
as §1, with “Cell cultures were maintained at 37 °C under a humidified atmosphere of 5% CO2/95% O2.” left out, “Assays where repeated in three experiments performed in triplicate (unless otherwise stated) and reported results represent the mean value ± standard error mean.” left out

For series [4] the test system is unchanged. Nature of the series: Lactate dehydrogenase (LDH) cytotoxicity assay in MDA-MB-231. In kind it is cell-based. The following applies: % cell lysis at 10 μM. On the procedure:
as §2

A short description of series [5]: HPLC stability study in phosphate buffer. The format is physicochemical. The note with it: pH values in the range 4–9. As to the method: Analytical high-performance liquid chromatography (HPLC) stability studies were performed using a Symmetry® column (C18, 5 µm, 4.6 × 150 mm), a Waters 2487 Dual Wavelength Absorbance detector, a Waters 1525 binary HPLC pump and a Waters 717 plus Autosampler (Waters Corporation, Milford, MA, USA). Samples were detected at wavelength of 254 nm. All samples were analysed using acetonitrile (80%):water (20%) as the mobile phase over 10 min and a flow rate of 1 mL/min. Stock solutions are prepared by dissolving 5mg of compound in 10 mL of mobile phase. Phosphate buffers at the desired pH values (4, 7.4, and 9) were prepared in accordance with the British Pharmacopoeia monograph 2015. 30 µL of stock solution was diluted with 1 mL of appropriate buffer, shaken and injected immediately. Samples were withdrawn and analysed at time intervals of t = 0 min, 5 min, 30 min, 60 min, 90 min, 120 min, 24 h and 48 h.

[6] abbreviates: mean of at least three experiments in triplicate.

With `CCC(=C(c1ccc(O)cc1)c1ccc(OCCNC)cc1)c1ccccc1` [Compound 11, 4-{1-[4-(2-Methylaminoethoxy)phenyl]-2-phenylbut-1-enyl}phenol, reference compound], the IC50 in series [1] (setting [6]) was determined as 29 nM; in series [1] (values in nM), 0.029 nM; at human ERα it was 47 nM; at human ERβ, 118 nM. Also, in series [2], the “% Cell Death at 10 μM” value was 23%. Besides, on human ERα, the “Selectivity (α/β)” value came to 2.52.
With `CCC(=C(c1ccc(O)cc1)c1ccc(OCCNC)cc1)c1ccc(O)cc1` [Compound 12, 4-(1-(4-(2-(Methylamino)ethoxy)phenyl)-2-(4-hydroxyphenyl)but-1-enyl)phenol], the half-inhibitory concentration (IC50) in series [1] (setting [6]) was 28 nM; at human ERα, 44.1 nM and 44 nM; on human ERβ, 39.7 nM and 40 nM. The “% Cell Death at 10 μM” value in series [2] was 11%. In addition, the “Selectivity (α/β)” value at human ERα came out at 0.90.
As to `CCC(=C(c1ccc(O)cc1)c1ccc(OCCN(C)C(=O)/C(=C/c2cc(OC)c(OC)c(OC)c2)c2ccc(OC)cc2)cc1)c1ccccc1` (mixture of isomers) [Compound 31, (E)-N-(2-{4-[(E/Z)-1-(4-Hydroxyphenyl)-2-phenylbut-1-enyl]phenoxy}ethyl)-2-(4-methoxyphenyl)-N-methyl-3-(3,4,5-trimethoxyphenyl) acrylamide], the half-inhibitory concentration (IC50) in series [1] (setting [6]) was determined as 2080 nM; in series [3], 51000 nM. The “% Cell Death at 10 μM” value is listed as 1% in series [2] and 0% in series [4]. Further, the half-life at 14.6 µg/mL in series [5] was over 24 h.
With `CCC(=C(c1ccc(O)cc1)c1ccc(OCCN(C)C(=O)/C(=C/c2ccc(OC)c(O)c2)c2cc(OC)c(OC)c(OC)c2)cc1)c1ccccc1` (mixture of isomers) [Compound 27, (E)-3-(3-Hydroxy-4-methoxyphenyl)-N-(2-{4-[(E/Z)-1-(4-hydroxyphenyl)-2-phenylbut-1-enyl]phenoxy}ethyl)-N-methyl-2-(3,4,5-trimethoxyphenyl) acrylamide], the half-inhibitory concentration (IC50) in series [1] (setting [6]) worked out at 33 nM; in series [1] (values in nM), 0.033 nM; in series [3] it was 2670 nM. The “% Cell Death at 10 μM” value was 10% in series [2] and 17% in series [4]. In series [5], this compound gave a half-life at 14.6 µg/mL of over 24 h.
In the case of `CCC(=C(c1ccc(O)cc1)c1ccc(OCCN(C)C(=O)/C(=C/c2cc(OC)c(OC)c(OC)c2)c2ccc(OC)cc2)cc1)c1ccc(O)cc1` (mixture of isomers) [Compound 32, (E)-N-(2-{4-[(E/Z)-1,2-Bis-(4-hydroxyphenyl)but-1-enyl]phenoxy}ethyl)-2-(4-methoxyphenyl)-N-methyl-3-(3,4,5-trimethoxyphenyl)acrylamide], the values for the IC50 in series [1] (setting [6]) and in series [3] were 41 nM and 4090 nM, respectively. The “% Cell Death at 10 μM” value in series [2] was 16%; in series [4], 0%. For the same compound, the half-life at 14.6 µg/mL in series [5] was over 24 h.

Usually IC50 stands for the midpoint of a concentration-inhibition curve. The half-life is how long it takes for the measured level to halve. Lower therefore signals rapid decline.
